Here are results for 16 molecules from ChEMBL document CHEMBL1201862, “PubChem BioAssay data set” (2004).

Activity calls are given as the source filed them.

Test [1] can be described thus: Luminescence Cell-Based Dose Confirmation HTS to Identify Inhibitors of Platelet Dense Granule Release. [Related pubchem assays: 1663 (Primary HTS), 1678 (Summary of Project)]. The test is classed as functional.
Test [2] concerns the target Luciferin 4-monooxygenase (Photinus pyralis, UniProt P08659). In words: inhibition of purified Photinus pyralis luciferase – biochemical, luminescence, dose response (AID 1891).
A further test deals with Nonstructural protein 1 (Influenza A virus, UniProt Q194T2). The test is classed as functional, Influenza A virus (A/California/07/2009(H1N1)).
Nonstructural protein 1, sequence (Q194T2 whole entry): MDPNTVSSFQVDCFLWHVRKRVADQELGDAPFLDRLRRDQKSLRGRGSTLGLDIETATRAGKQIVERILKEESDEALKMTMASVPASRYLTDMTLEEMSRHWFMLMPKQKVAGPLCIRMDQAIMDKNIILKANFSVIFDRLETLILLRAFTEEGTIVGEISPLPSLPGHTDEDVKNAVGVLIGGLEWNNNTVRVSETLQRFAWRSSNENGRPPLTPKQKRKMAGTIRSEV
Another test has as its target T1, Protein RecA (Mycobacterium tuberculosis, UniProt P9WHJ3).
T1 sequence (P9WHJ3 whole entry): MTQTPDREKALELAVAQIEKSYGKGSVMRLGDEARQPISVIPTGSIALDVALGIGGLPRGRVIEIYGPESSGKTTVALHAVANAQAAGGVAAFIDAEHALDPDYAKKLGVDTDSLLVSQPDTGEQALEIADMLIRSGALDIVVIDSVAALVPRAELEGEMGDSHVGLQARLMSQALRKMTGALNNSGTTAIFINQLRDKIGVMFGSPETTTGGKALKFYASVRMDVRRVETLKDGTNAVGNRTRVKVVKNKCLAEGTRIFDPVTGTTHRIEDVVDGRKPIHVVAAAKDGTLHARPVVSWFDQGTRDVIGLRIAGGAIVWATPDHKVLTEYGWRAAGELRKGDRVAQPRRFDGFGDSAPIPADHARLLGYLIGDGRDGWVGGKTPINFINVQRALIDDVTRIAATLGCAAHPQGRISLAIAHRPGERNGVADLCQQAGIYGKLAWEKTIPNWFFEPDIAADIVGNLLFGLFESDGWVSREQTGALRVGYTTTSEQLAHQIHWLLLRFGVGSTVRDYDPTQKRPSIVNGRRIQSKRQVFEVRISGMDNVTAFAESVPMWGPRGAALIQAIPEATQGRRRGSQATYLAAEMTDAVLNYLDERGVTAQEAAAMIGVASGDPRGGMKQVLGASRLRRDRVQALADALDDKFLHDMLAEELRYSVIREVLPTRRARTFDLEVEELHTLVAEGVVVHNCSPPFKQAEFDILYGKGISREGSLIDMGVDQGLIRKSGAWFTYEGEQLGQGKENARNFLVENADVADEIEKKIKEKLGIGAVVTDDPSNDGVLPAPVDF
The experiment in a line: Fluorescence Cell-Free Homogeneous Dose Retest to Identify Inhibitors of RecA-Intein Splicing Activity. [Related pubchem assays (depositor defined):AID2097, AID2223, AID489010, AID492950]. The test is classed as functional.

Test [3] concerns the target T2, Replicative DNA helicase DnaB (Mycobacterium tuberculosis, UniProt P9WMR3).
T2 sequence (P9WMR3 whole entry): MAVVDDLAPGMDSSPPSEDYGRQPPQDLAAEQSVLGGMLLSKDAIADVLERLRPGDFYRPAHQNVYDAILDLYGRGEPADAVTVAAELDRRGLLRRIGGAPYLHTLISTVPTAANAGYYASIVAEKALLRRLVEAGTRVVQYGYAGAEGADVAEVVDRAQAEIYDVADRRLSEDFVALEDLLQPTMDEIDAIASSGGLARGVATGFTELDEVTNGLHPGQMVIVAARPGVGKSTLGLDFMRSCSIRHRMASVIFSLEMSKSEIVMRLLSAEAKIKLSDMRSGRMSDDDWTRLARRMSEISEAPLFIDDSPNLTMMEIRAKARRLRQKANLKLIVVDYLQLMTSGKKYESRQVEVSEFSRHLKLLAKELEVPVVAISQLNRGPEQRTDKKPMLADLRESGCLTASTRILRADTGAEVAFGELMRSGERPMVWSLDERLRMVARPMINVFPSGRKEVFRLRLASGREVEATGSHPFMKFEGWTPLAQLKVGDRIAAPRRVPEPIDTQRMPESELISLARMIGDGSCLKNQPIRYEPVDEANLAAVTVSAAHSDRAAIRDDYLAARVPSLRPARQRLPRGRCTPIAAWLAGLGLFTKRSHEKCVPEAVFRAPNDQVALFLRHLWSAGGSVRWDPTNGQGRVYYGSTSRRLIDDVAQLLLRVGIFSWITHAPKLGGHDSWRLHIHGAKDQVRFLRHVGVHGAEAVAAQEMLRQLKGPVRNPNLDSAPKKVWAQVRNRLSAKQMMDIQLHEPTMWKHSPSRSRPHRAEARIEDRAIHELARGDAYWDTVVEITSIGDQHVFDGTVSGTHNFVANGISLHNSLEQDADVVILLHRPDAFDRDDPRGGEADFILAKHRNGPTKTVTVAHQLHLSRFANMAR
The experiment in a line: DnaB intein splicing inhibitors, dose response, biochemical, cell-free fluorescence (AID 449749). The test is classed as functional.

The target of the next test is T3, Aminopeptidase N (Plasmodium falciparum FcB1/Columbia, UniProt O96935).
T3 sequence (O96935 whole entry): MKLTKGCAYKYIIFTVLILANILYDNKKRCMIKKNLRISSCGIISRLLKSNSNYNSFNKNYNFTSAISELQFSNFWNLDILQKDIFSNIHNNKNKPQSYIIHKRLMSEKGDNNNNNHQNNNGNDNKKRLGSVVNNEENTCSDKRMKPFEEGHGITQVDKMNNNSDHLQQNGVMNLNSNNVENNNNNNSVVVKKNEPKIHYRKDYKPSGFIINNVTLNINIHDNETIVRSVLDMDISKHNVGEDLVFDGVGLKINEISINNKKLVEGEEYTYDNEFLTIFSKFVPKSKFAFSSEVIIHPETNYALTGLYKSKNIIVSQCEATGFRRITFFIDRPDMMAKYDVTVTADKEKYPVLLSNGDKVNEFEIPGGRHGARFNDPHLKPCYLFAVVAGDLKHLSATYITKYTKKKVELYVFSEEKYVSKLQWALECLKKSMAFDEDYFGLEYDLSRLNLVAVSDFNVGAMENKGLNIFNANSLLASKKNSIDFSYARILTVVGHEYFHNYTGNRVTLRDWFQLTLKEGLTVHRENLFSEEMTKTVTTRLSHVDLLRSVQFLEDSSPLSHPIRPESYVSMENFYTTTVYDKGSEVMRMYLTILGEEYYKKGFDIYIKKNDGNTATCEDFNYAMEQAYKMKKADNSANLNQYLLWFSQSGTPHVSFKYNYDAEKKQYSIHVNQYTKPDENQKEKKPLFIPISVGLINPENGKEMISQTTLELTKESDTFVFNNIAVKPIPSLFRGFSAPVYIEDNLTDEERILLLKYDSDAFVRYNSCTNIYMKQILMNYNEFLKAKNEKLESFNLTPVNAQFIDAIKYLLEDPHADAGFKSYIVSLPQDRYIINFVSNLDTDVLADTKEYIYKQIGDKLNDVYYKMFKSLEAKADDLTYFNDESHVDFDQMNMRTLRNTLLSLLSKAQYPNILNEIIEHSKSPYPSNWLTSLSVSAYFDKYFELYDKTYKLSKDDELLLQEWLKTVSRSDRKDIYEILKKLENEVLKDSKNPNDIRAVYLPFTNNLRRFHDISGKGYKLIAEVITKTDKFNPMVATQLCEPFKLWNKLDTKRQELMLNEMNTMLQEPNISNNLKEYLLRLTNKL
The experiment in a line: malaria alanyl aminopeptidase activity blockers – biochemical, fluorogenic H-Leu-NHMec substrate, 1536-well (AID 1445). The arrangement: species or system Plasmodium falciparum 3D7, 3D7.

Test [4] is described as follows: NIH-3T3 fibroblast cytotoxicity, dose response, cytotoxicity control, cell-based, fluorescence, Alamar Blue, secondary assay (AID 2327).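 Note: NIH-3T3 mouse fibroblasts cultured with fluconazole at 8 µg/mL.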 The test is classed as functional.
In a further test the test system is Vero. In words: cells. The test is classed as functional. The settings on record: Chlorocebus sabaeus.
A short description of test [5]: viability of HCT116 lacking mutant beta-catenin – cell-based, human colon tumor, dose response (AID 1045).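 Note: HCT116 colon tumor cells with beta catenin knocked out; cells exposed to compound for 60 hours.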 The test is classed as functional.
The nature of test [6]: viability of PTEN-deleted HCT116 cells – cell-based, HCT116 PTEN knockout, dose response (AID 1047).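 Note: HCT116 colon tumor cells with PTEN knocked out; cells exposed to compound for 60 hours before readout; potency for loss of cell viability measured by luminescence.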 The test is classed as functional.
Test [7] is described as follows: reduction of Shn3 3'UTR-driven luciferase in osteoblasts – cell-based, Clone20 osteoblasts, firefly luciferase, cherry-picked, dose response (AID 624132).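 Note: firefly luciferase luminescence from reporter carrying the Shn3 3'UTR in osteoblasts.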 The test is classed as functional.
A short description of test [8]: blockers of HIV-1 envelope-mediated cell-cell fusion – cherry-pick, dose response (AID 652057). The test is classed as functional, cell-based.

Luciferin 4-monooxygenase, sequence (P08659 whole entry): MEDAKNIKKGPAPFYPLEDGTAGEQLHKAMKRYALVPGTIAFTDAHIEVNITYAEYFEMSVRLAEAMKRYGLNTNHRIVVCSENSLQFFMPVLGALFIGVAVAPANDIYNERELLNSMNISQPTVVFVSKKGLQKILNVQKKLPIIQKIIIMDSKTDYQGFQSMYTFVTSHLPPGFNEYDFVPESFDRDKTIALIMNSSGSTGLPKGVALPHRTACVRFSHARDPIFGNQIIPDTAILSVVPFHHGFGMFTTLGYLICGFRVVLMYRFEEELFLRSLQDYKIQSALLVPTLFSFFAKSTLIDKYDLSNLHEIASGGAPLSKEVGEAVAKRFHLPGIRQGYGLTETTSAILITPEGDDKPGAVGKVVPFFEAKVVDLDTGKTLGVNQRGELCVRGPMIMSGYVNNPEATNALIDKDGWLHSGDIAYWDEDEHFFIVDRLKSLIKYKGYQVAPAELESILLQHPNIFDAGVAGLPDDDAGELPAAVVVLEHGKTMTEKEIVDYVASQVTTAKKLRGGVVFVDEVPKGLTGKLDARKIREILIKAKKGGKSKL

For the molecule `Cc1ccc2nc(NC(=O)CN3C(=O)NC4(CCCC4)C3=O)sc2c1`, the EC50 in [1] is > 112 µM (not active); in test [2], 80 µM (active). `Cc1cc(N(C)N)nc(NC(=O)NS(=O)(=O)c2ccccc2Cl)n1`: the IC50 on Nonstructural protein 1 was 5.96 µM (active).

For `COc1cc(/C=C2\C(=O)N(c3ccc(NC(C)=O)cc3)N=C2c2ccccc2)ccc1O`, the EC50 on Protein RecA is > 380 µM (inconclusive). In addition, the AC50 in [3] was > 380 µM (inactive). `CC(=O)Nc1cccc(NC(=O)C2CCCN2C(=O)Nc2ccc(Cl)cc2)c1` (configuration not stated): the IC50 on Aminopeptidase N was 84.1 µM (active). Moreover, the EC50 in [4] was > 160 µM (inactive). Regarding `O=C(/C=C/c1ccc(Cl)cc1Cl)c1cccnc1`, the CC50 in the test with Vero was > 25 µM (active). Besides, the EC50 is 5.09 µM (active) in [5] and 7.26 µM (active) in test [6]. Consider `CC(C)(C)C(=O)Nc1cc(S(=O)(=O)N2CCCCC2)ccc1N1CCCCC1`, for which the AC50 in test [7] is 23.1 µM (active). Regarding `CC(=O)N1N=C(c2c(-c3ccccc3)c3cc(Br)ccc3[nH]c2=O)CC1c1ccco1` (configuration not stated), the IC50 on Aminopeptidase N is 58.8 µM (active). Turning to `CCOc1ccccc1N1CC(C(=O)Nc2nccs2)CC1=O` (configuration not stated), the EC50 in test [1] and in test [2] was > 112 µM (not active) throughout. For `CCC(C)(C)NC(=O)CN(Cc1ccc2c(c1)OCO2)C(=O)CCC(=O)Nc1ccccn1`, at Aminopeptidase N, the IC50 is 67 µM (active). In the case of `O=C(Nc1ccc(-c2nc3ccccc3o2)cc1)C1CCCO1` (configuration not stated), the EC50 is 2.58 µM (active) in [1] and 2.6 µM (active) in test [2]. For `O=C(CNCc1ccccn1)Nc1ccc([N+](=O)[O-])cc1C(=O)Nc1ccccc1F`, the half-inhibitory concentration (IC50) at Nonstructural protein 1 was 5.49 µM (active).

As to `COc1cc(C(c2sc3nc(C)nn3c2O)N2CCOCC2)cc(OC)c1OC` (configuration not stated), the EC50 in test [1] is 18.6 µM (active); in test [2] it was > 112 µM (not active). On to `COc1cc(OC)c(-c2nnc3n(CCc4ccccc4)c(=O)c4ccccc4n23)cc1OC`, for which the EC50 in [1] and in [2] was > 112 µM (not active) in each case. Take `C[C@H](CO)N1C[C@H](C)[C@H](CN(C)S(=O)(=O)c2ccc(C#N)cc2)Oc2ncc(/C=C/c3ccccc3)cc2C1=O`: in test [8], the AC50 is 7.61 µM (active). In the case of `C/C(CC(=O)Nc1cc(C)ccn1)=N\NC(=O)c1cccc(C)c1`, the EC50 on Protein RecA was 4.04 µM (active). Moreover, the AC50 in test [3] is 9.58 µM (active).

Take `O=C1Nc2ccccc2Nc2ncccc21`: the EC50 in [1] and in test [2] was > 112 µM (not active) in each case.
